Assay results published in patent publication US20220144850A1, “INDOLO HEPTAMYL OXIME ANALOGUE AS PARP INHIBITOR” (Chia Tai Tianqing Pharmaceutical Group Co., Ltd., priority 2019, published 2022).

Tested on: human breast cancer MDA-MB-436 cells
Experiment: In vivo pharmacodynamic study, subcutaneous xenograft tumor model of MDA-MB-436 cells
Design: species or system BALB/c nude mouse
Conditions: for TGI: day 27; for Tumor volume (day 27): mean ± SEM
Description: Experimental Example 9: In Vivo Pharmacodynamic Study of Compounds in Subcutaneous Xenograft Tumor BALB/c Nude Mouse Model of Human Breast Cancer MDA-MB-436 Cells
Experimental objective: to study the efficacy in vivo of the test compound in subcutaneous xenograft tumor BALB/c nude mouse model of human breast cancer MDA-MB-436 cells.
Experimental materials: week age and body weight: female BALB/c nude mice, 6-8 weeks old, 18-22 g of body weight. The experiment started after 3-7-days of adaptive feeding. The animal information card of each cage provides the following information about the animals: number, sex, strain, receiving date, administration regime, experiment number, group and starting date of the experiment. All the cages, padding and drinking water were sterilized before use. The cages, feed and drinking water were changed twice a week. The experimental animals were identified with ear tags. Test samples: Example 24_A and Example 25_A. All the test samples were prepared with 10% DMSO+90% (20% HP-β-CD) as vehicle, and the blank control group was administered with the vehicle alone.
1. Cell culturing. Human breast cancer MDA-MB-436 cells (ATCC, Manassas, Va., catalog No.: HTB-130) were cultured in an RPMI-1640 culture medium containing 10% fetal bovine serum and 1% Anti-anti through in vitro monolayer culture in an incubator at 37° C./5% CO2. The cells were digested with trypsin-EDTA twice a week for passaging as per conventional practice. At a cell saturation of 80%-90% and a required number, the cells were collected, counted and inoculated. 2. Tumor cell inoculation (tumor inoculation). 0.2 mL (1×10^7 cells) of MDA-MB-436 cells (along with matrigel in a volume ratio of 1:1) was subcutaneously inoculated on the right back of each mouse, and the mice were randomly grouped when the average tumor volume was 318 mm^3. 3. Daily observation of experimental animals: animals were monitored daily for health and death, and routine examinations include observation of the effect of tumor growth and drug treatment on the daily performance of the animals, such as behavioral activities, food and water intake, weight changes, appearance, or other abnormal conditions. 4. Tumor measurements and experimental indices: the experimental indices were to investigate whether the tumor growth was inhibited, the tumor growth was delayed or the tumor was cured. Tumor diameters were measured twice weekly using a vernier caliper. The tumor volume was calculated using the following formula: V=0.5a×b^2, where a and b represent the long diameter and short diameter of the tumor, respectively. The anti-tumor therapeutic effect of the compound was evaluated by TGI (%) or relative tumor proliferation rate T/C (%). TGI (%) refers to the rate of tumor growth inhibition. Calculation of TGI (%): TGI (%)=[(1−(average tumor volume at the end of administration in a treatment group−average tumor volume at the start of administration of the treatment group))/(average tumor volume at the end of treatment of the solvent control group−average tumor volume at the start of treatment of the solvent control group)]×100%. The calculation formula for relative tumor proliferation rate T/C (%) was as follows: T/C (%)=TRTV/CRTV×100% (TRTV: RTV of treatment group; CRTV: RTV of negative control group). Relative tumor volume (RTV) was calculated based on the results of tumor measurement. The calculation formula was: RTV=Vt/V0, wherein V0 was the average tumor volume measured at the time of grouping and administration (i.e., d0), Vt was the average tumor volume at a certain measurement, and the data of TRTV and CRTV used were obtained on the same day. 5. Statistical analysis: including mean and standard error of mean (SEM) of tumor volume at each time point for each group. […] The experimental data were analyzed using a one-way ANOVA method and a Games-Howell method. All data analysis was performed with SPSS 17.0. p<0.05 was defined as a significant difference.

CC1(c2ccc(-c3[nH]c4cc(F)cc5c4c3CONC5=O)cc2)CCCN1 (stereo not drawn) [Example 25_A] was tested, and the TGI (12.5 mg/kg PO QD × 28 days) was 95.34%, the “Tumor volume (day 27)” value (12.5 mg/kg PO QD × 28 days) was 377 ± 149 mm^3 and the TGI (25 mg/kg PO QD × 28 days) was 114.69%. For the same compound, the “Tumor volume (day 27)” value (25 mg/kg PO QD × 28 days) was 132 ± 32 mm^3, the TGI (50 mg/kg PO QD × 28 days) was 117.86% and the “Tumor volume (day 27)” value (50 mg/kg PO QD × 28 days) was 91 ± 14 mm^3.
